Measured values: patent publication US12516331B2, “Monocyte-specific aptamers and uses thereof for enhancing drug delivery to cancer” (Academia Sinica, priority 2020, dated 2026)

Key:
[1] = test system: RAW264.7 (murine monocyte cell line); experiment: Flow cytometry binding of Cy5-labeled aptamers to monocyte cell line RAW264.7; set-up: species or system mouse; conditions: RAW264.7 cells, 200 nM Cy5-aptamer, 4° C., 30 minutes, flow cytometry (FIG. 2A)
Method: (§1) To confirm that J10, but not S2, was capable of binding selectively to monocytes in vitro, the J10 and S2 aptamers were first labeled with the fluorescent labeling reagent Cy5 ((2Z)-2-[(2E,4E)-5-[1-(5-Carboxypentyl)-3,3-dimethyl-5-sulfoindol-1-ium-2-yl]penta-2,4-dienylidene]-1-ethyl-3,3-dimethylindole-5-sulfonate) and then incubated with monocyte cells lines RAW264.7 and J774A.1. Cy5-labeled J10 and S2 were also incubated with the mouse endothelial cell line SVEC which was used as a negative selection. In brief, 5×10^5 of each selected cell line was pre-mixed in a bloc king buffer (20% FBS and 10% salmon sperm DNA in PBS) at 4° C. for 30 minutes. After that, the cells were reacted with 200 nM Cy5-J10 or Cy5-S2 in the blocking buffer at 4° C. for 30 minutes. Finally, the sample was subjected to flow cytometry using standard protocols known in the art. […] Together, the data in FIGS. 2A and 2B confirmed that J10, but not S2, was capable of binding selectively to monocytes in vitro and being carried to the injured site in vivo.

[2] = test system: J774A.1 (murine monocyte cell line); experiment: Flow cytometry binding of Cy5-labeled aptamers to monocyte cell line J774A.1; set-up: species or system mouse; conditions: J774A.1 cells, 200 nM Cy5-aptamer, 4° C., 30 minutes, flow cytometry (FIG. 2A)
Method: as §1

[3] = test system: mouse endothelial cell line SVEC; experiment: Flow cytometry binding of Cy5-labeled aptamers to endothelial cell line SVEC (negative selection); conditions: 200 nM Cy5-aptamer, 4° C., 30 minutes, flow cytometry (FIG. 2A)
Method: as §1

[4] = test system: human monocyte cell line THP-1; experiment: Flow cytometry binding of Cy5-labeled aptamers to human monocyte cell line THP-1; conditions: THP-1 cells, 200 nM Cy5-aptamer, 4° C., 30 minutes (FIG. 3)
Method: (§2) To confirm that J10 binding, but not S2 binding, was selective to human monocytes in vitro, Cy5-labeled J10 and S2 were also incubated with the human monocyte cell lines, THP-1 and U937, and human umbilical cord endothelial cells (HUVEC), which were used as a negative control. In brief, 5×10^5 of each selected cell line was pre-mixed in a bloc king buffer (20% FBS and 10% salmon sperm DNA in PBS) at 4° C. for 30 minutes. After that, the cells were reacted with 200 nM Cy5-J10 or Cy5-S2 in the blocking buffer at 4° C. for 30 minutes. Finally, the sample was subjected to flow cytometry using standard protocols known in the art.

[5] = test system: human monocyte cell line U937; experiment: Flow cytometry binding of Cy5-labeled aptamers to human monocyte cell line U937; conditions: U937 cells, 200 nM Cy5-aptamer, 4° C., 30 minutes (FIG. 3)
Method: as §2

[6] = PCR analysis of aptamer targeting to the injured site in the mouse cardiac ischemia reperfusion (I/R) model; assay type: in vivo; conditions: intravenous injection, mouse cardiac I/R model (FIG. 2B)
Description: FIGS. 2A-2D include diagrams depicting the specificity of J10 aptamer to monocytes. FIG. 2A: depicts a graph showing the amount of Cy5-labeled J10 aptamer and Cy5-labeled S2 aptamer in the monocyte cells lines RAW264.7 and J774A.1 and the mouse endothelial cell line SVEC as measured by flow cytometry. Mouse endothelial cell line SVEC was used as a negative selection. The S2 aptamer had the same nucleotide composition as J10 aptamer but randomized the sequence. Two-way ANOVA with a Tukey adjustment was used to analyze the data where *P<0.05; **P<0.01; ***P<0.001 were significant. FIG. 2B: Top panel depicts images showing the accumulating amount of J10 and S2 aptamers in infarct area of the injured hearts as measured by PCR. Bottom panel depicts quantification of PCR results. Unpaired Student's t-test was used to analyze the data where *P<0.05; **P<0.01; ***P<0.001 were significant. FIG. 2C: depicts images showing in vivo targeting of in vivo targeting of S2 aptamer-QD655 (top panel) J10 aptamer-QD655 (bottom panel) to circulating CX3CR1-GFP^+ monocytes via intravital imaging. The aptamer was conjugated with quantum dots QD655. Scale bars shown represent 100 μm. FIG. 2D: depicts a graph showing ex vivo targeting of J10 aptamer against circulating monocytes examined with flow cytometry to analyse the amount of Cy5-J10 associated with CD45^+ and CD11b^+ cells isolated from peripheral blood. […]

[7] = test system: circulating myeloid cells (CD45+ CD11b+ cells); experiment: Ex vivo binding of Cy5-aptamer to peripheral blood cells by flow cytometry; set-up: species or system mouse; conditions: peripheral blood of healthy mice, 2 μM Cy5-Apt, 30 minutes at 4° C. (FIG. 2D)
Method: To test ex vivo binding specificity and affinity, 100 μL peripheral blood from healthy mice was withdrawn via the submandibular vein, collected in EDTA-containing anticoagulant tubes (BD Vacutainer), and incubated with 2 mL ACK lysing buffer for 10 minutes to lyse the red blood cells. After that, 2% FBS in PBS was added to stop the reaction. Following centrifugation (300 g for 3 minutes at 4° C.) the supernatants were removed. One million cells were blocked by CD16/CD32 Fc blocking antibody (1:100) after incubation for 20 minutes. Then the cells were stained for CD45 (PE-Cy7; 1:100 Biolegend), CD11b (PE; 1:200 Biolegend) and 2 μM Cy5-Apt for 30 minutes at 4° C. Finally, the cells were washed by 2% FBS in PBS and subjected to flow cytometry using standard protocols known in the art.

J10: monocyte-targeting DNA aptamer identified by cell-SELEX; sequence in Table 1; Cy5-labeled for flow cytometry (DNA CAATAGAGTCGTACAGGTCGACGCT; Cy5-labeled DNA aptamer, label position not given here) [Aptamer J10]
percentage of Cy5-labeled monocytes [1]: significantly higher than the percentage of Cy5-labeled S2 monocytes | percentage of Cy5-labeled monocytes [2]: significantly higher than the percentage of Cy5-labeled S2 monocytes | detection of Cy5-labeled aptamer in endothelial cells [3]: no detection | binding affinity (flow cytometry) [4]: high binding affinity | binding affinity (flow cytometry) [5]: high binding affinity | in vivo targeting to the injured site (PCR) [6]: confirmed in vivo targeting ability | ex vivo affinity to CD45+ CD11b+ cells [7]: high affinity
